# Measurements as given in US6444640B1, “Compositions of trail and DNA damaging drugs and uses thereof” (Ludwig Institute for Cancer Research, priority 1999, dated 2002).
# Like-named read-outs stand apart in the source and are kept apart here.
# B1: TRAIL: tumor necrosis factor related apoptosis inducing ligand; given in vivo as fusion protein FLAG-TRAIL (protein)
# chain: TSEETISTVQEKQQNISPLVRERGPQRVAAHITGTRGRSNTLSSPNSKNEKALGRKINSWESSRSGHSFLSNLHLRNGELVIHEKGFYYIYSQTYFRFQEEIKENTKNDKQMVQYIYKYTSYPDPILLMKSARNSCWSKDAEYGLYSIYQGGIFELKENDRIFVSVTNEHLIDMDHEASFFGAFLVG
# Tests used:
# DR5 = test: Northern blot of DR5 expression in human glioma cell lines after drug treatment; type: cell-based; conditions: for basal level expression of ~4.4Kb DR5 transcripts after contact with drug: U87MG, A1207, U178 cells, Northern blot
# Description: This first set of experiments was designed to determine whether chemotherapeutic agents which are used in treating gliomas could upregulate expression of DR5 in human glioma cell lines. This was apreliminary step to determine if wild type p53, which is found in de novo glioblastomas, could be exploited.
# The human glioblastoma cell lines U87MG, A1207, and U178 were used. The first two of these cell lines are homozygous for wild type p53, while U178 cells express a wild type allele, and an allele with a mutation at codon 271. Samples of cells were treated with one of cis-diamminedichloroplatinum (II) (“CDDP” hereafter), ectoposide (“VP16” hereafter), or chloroethyl)-BCNU. The U87MG and U178 cells received either 0, 1, or 4 ug/ml doses of CDDP; 0, 8, or 16 ug/ml doses of VP16, or 0, 100, or 200 μM doses of BCNU. The A1207 cells received 0, 5, or 20 ug/ml of CDDP, 0, 8 or 16 ug/ml of VP16, or 0, 100, or 200 μM doses of BCNU.
# The cells were treated with the drug at an indicated dosage for 16 hours, after which they were harvested, and total RNA was extracted, following standard methods. Then, 15 ug samples were size fractionated on a 1% agarose formaldehyde gel, and transferred to a nylon membrane. These samples were then probed with a human DR5 cDNA probe, 583 base pairs long. This had beenz prepared via RT-PCR of total RNA of U87MG cells using:
# The hybridization was carried out at 68° C. for 2 hours, followed by washing in 0.5×SSC and 0.1% SDS at 58° C. for 15 minutes. The membranes were then exposed to film at −80° C. with an intensifying screen. In order to confirm that RNA had in fact been loaded, 28SrRNA was stained with methylene blue.
# [1] = test system: astrocytes from p53 knockout mice; conditions: in vitro; cited from earlier work
# U87MG cells [2] = test: MTT survival assay; conditions: for cell viability, single agent: TRAIL 0.1 ug/ml, CDDP 4 ug/ml, VP16 16 ug/ml, 24 hours
# Description: (§1) Experiments were then carried out to determine if combining TRAIL with the damaging agents would enhance cytotoxicity. The method employed to determine if combining TRAIL with the damaging agents would enhance cytotoxicity was the 3-(4,5-dimethylthiazol-2-yl)-2,5-diphenyl tetrazolum bromide (“MTT”) survival assay, described by Mosmann, et al., J. Immunol. […] Cells (U87MG) were plated, at 1×10^4 cells/well in 96 well microtiter plates overnight.
# (§2) The cytotoxic effect of TRAIL, in combination with one of the DNA damaging agents discussed supra, i.e., CDDP, VP16, as BCNU was tested, by either adding TRAIL alone, the drug alone, or TRAIL plus the drug, in a two component combination, with DR5-Fc, referred to supra, or with Fc. The dosages were as provided supra.
# [3] = test system: poly (ADP-ribase) polymerase; test: Western blot for PARP cleavage (activation of effector caspases); type: cell-based, human; conditions: 24 hours after treatment
# Description: The direct assessment of activation of effector caspases was examined by assaying for cleavage of poly (ADP-ribase) polymerase, or “PARP”, after treatment with combinations of a DNA damaging agent (CDDP or VP16), TRAIL, DR5-Fc or Fc, and the caspase inhibitor, Z-Asp-CH2-DCB. This was determined via Western blotting, where 20 ug of clarified protein lysate was loaded onto SDS gels 24 hours after treatment, electrophoresed, transferred to membranes, and then probed with monoclonal antibodies against PARP. Full length PARP has a molecular weight of about 116 kilodalton and, when cleaved, one fragment is 85 kilodaltons.
# U87MG cells [4] = test: Apoptosis of U87MG cells (TUNEL, flow cytometry) with caspase inhibitor; type: cell-based, human
# Description: In these experiments, the mechanism by which the cell death caused by combination of TRAIL and DNA damaging agents was studied further. U87MG cells were plated overnight, and then treated with either TRAIL alone (0.1 ug/ml), CDDP alone (4 ug/ml) VP16 alone (16 ug/ml) TRAIL and CDDP, at the recited doses, or TRAIL plus VP16, at the recited doses. The cells were treated for 44 hours, collected, fixed in 2% formaldehyde, and permeabilized in 0.05% Tween-20 in bovine serum albumin solution.
# The cells were then incubated with TUNEL (terminal deoxynucleotidyl transferase mediated nick end labeling) solution, at 37° C. for 1 hour. Those cells which stained positively with fluorescein were analyzed via flow cytometry. The morphology of the dead cells was typical of apoptosis.
# TRAIL is known to induce apoptosis through activation of effector caspases. See, e.g., Wu, et al., Nature Genet 17: 141-143 (1997); Wiley et al., Immunity 3: 673-682 (1995); Pitti, et al., J. Biol Chem 271: 12687-12690 (1996); Pan, et al., Science 277: 815-818 (1997); Sheridan, et al., Science 277: 818-821 (1997); Walczak, et al., EMBO J. 16: 5386-5397 (1997).
# U87MG cells [5] = test system: U87MG cells
# Description: as §1, §2
# U87MG cells [6] = test: Subcutaneous U87MG tumors in nude mice, Example 7; type: in vivo; conditions: single agent
# Description: To test this, U87MG cells (2×10^6) were suspended in 0.1 ml PBS, and then injected subcutaneously into the right flank of 4-5 week old female nude mice, of BALB/C background. Tumors were permitted to become established, and then grow for 20 days, reaching an approximate innate volume of 150 mm^3. Then, either CDDP (3 mg/kg), or sterile normal saline was administered intraperitoneally on days 20,21,22,30,31, and 32. Mice also received either fusion protein FLAG-TRAIL (200 ug), or a mock control. The FLAG-TRAIL fusion protein described by Degli-Esposti, et al., J. Exp. Med 186: 1165-1170 (1997), incorporated by reference, was prepared via standard recombinant methods. Mock controls were prepared by carrying out the same protocol used to produce the FLAG-TRAIL, but without a vector which encoded the fusion protein. Cell lysate was used as the control. The FLAG-TRAIL or control was administered via intraveneous and intraperitoneal injections 16 hours and 24 hours following CDDP treatment, i.e., on days 21,22,23, 31,32 and 33. Growth of the tumors was measured at 2 day intervals, in accordance with Huang, et al., J. Biol Chem 272: […] (1997).
molecule,measurement,setting,value
"O=NN(CCCl)C(=O)NCCCl [BCNU, 1,3 bis (2-chloroethyl)-1-nitrosourea]",basal level expression of ~4.4Kb DR5 transcripts after contact with drug,DR5,lesser effect
same,sensitivity of p53 knockout astrocytes compared with wild type astrocytes,[1],more sensitive
"COc1cc([C@@H]2c3cc4c(cc3[C@@H](O[C@@H]3O[C@@H]5CO[C@@H](C)O[C@H]5[C@H](O)[C@H]3O)[C@H]3COC(=O)[C@H]23)OCO4)cc(OC)c1O [VP16, ectoposide]","cell viability, single agent",U87MG cells [2],sublethal
same,basal level expression of ~4.4Kb DR5 transcripts after contact with drug,DR5,increased significantly
same,PARP cleavage product (85 kilodaltons),[3],not
O=C(O)C[C@H](NC(=O)OCc1ccccc1)C(=O)COC(=O)c1c(Cl)cccc1Cl [Z-Asp-CH2-DCB],effect on synergistic cytotoxicity of TRAIL plus DNA damaging agent,U87MG cells [2]; added to TRAIL plus CDDP or VP16,at levels obtained for single drugs
same,effect on PARP cleavage elicited by TRAIL and CDDP or VP16,[3],inhibited
same,"apoptosis on treatment with TRAIL, one of CDDP or VP16, and the caspase inhibitor",U87MG cells [4],did not induce apoptosis
extracellular domain of DR4 expressed as a fusion protein with Fc: extracellular domain of DR4 expressed as a fusion protein with Fc,effect on synergistic cytotoxicity of TRAIL plus DNA damaging agent,U87MG cells [5],same elimination of synergistic cytotoxicity
"N.N.[Cl][Pt][Cl] [CDDP, cis-diamminedichloroplatinum (II)]","cell viability, single agent",U87MG cells [2],sublethal
same,basal level expression of ~4.4Kb DR5 transcripts after contact with drug,DR5,increased significantly
same,time of contact needed for induction of DR5,DR5; glioblastoma cell lines,16 h
same,PARP cleavage product (85 kilodaltons),[3],not
same,tumor growth compared with combined drugs,U87MG cells [6],grew significantly faster
DR5-Fc: a soluble fusion protein that competes for TRAIL,effect on synergistic cytotoxicity of TRAIL plus DNA damaging agent,U87MG cells [5],abolished
same,effect on PARP cleavage elicited by TRAIL and CDDP or VP16,[3],inhibited
B1,"cell viability, single agent",U87MG cells [2],no effect on cell viability
same,reduction of amount of TRAIL necessary for efficacy in combination versus alone,U87MG cells [2]; in combination with DNA damaging agent,about 100 fold
same,PARP cleavage product (85 kilodaltons),[3],not
same,tumor growth compared with combined drugs,U87MG cells [6],grew significantly faster
